Values joined by “and” are separate entries in the source; they are usually repeats but may differ in a detail not shown here. Equal entries are not always repeated.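 Protocol summary: plate cells (96-well), add compound at 5 concentrations, incubate 48 h, interpolate endpoints linearly. GI50 = concentration required for 50% inhibition of growth. The concentration for full growth arrest is given as TGI.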
Tests used:
Test in all cases: inhibition of tumour cell growth, NCI panel, 48 h
SF-295 CNS = system: SF-295 CNS
EKVX NSCLC = system: EKVX NSCLC
SR leukemia = system: SR leukemia
NCI-H23 lung = system: NCI-H23 lung
KM12 colon = system: KM12 colon
DMS 114 small cell lung = system: DMS 114 small cell lung
SN12C renal = system: SN12C renal
OVCAR-5 ovarian = system: OVCAR-5 ovarian
HCC-2998 colon = system: HCC-2998 colon
SF-539 CNS = system: SF-539 CNS

Structure (SMILES) | TGI (SF-295 CNS) [µM] | TGI (EKVX NSCLC) | TGI (SR leukemia) [µM] | TGI (NCI-H23 lung) [µM] | TGI (KM12 colon) | TGI (DMS 114 small cell lung) [µM] | TGI (SN12C renal) | TGI (OVCAR-5 ovarian) [µM] | TGI (HCC-2998 colon) | TGI (SF-539 CNS) [µM] | GI50 (SF-295 CNS) [µM] | GI50 (EKVX NSCLC) [µM] | GI50 (SR leukemia) | GI50 (NCI-H23 lung) [µM] | GI50 (SF-539 CNS) | GI50 (KM12 colon) [µM] | GI50 (SN12C renal) [µM] | GI50 (OVCAR-5 ovarian) [µM] | GI50 (HCC-2998 colon)
Cc1ccc([N+]2=NC(c3ccccc3)=NN(c3ccccc3)C2)cc1 | > 100 | > 100 µM | > 100 | > 100 | > 100 µM | > 100 | > 100 µM | > 100 | > 100 µM | – | – | – | – | – | – | – | – | – | –
N#C/C(=C1\OC(N)=C(c2ccc(Cl)cc2)C1=O)c1ccc(Cl)cc1 | 29.2 | 32.4 µM | 54.7 | 27.1 | 31.4 µM | 29.3 | 23 µM | 9.74 | 30.9 µM | 27.6 | – | – | – | – | – | – | – | – | –
O/N=C1\C(=C\c2ccc3c(c2)OCCO3)CCCC1C(NO)c1ccc2c(c1)OCCO2 (stereo not drawn) | > 100 | 69.6 µM | 55.5 | – | 52 µM | 44.6 | 29.8 µM | > 100 | 65.3 µM | 26.8 | – | – | – | – | – | – | – | – | –
C[C@H]1CCC2C(OC(=O)[C@@H]2CN(C)C)[C@]2(C)C(=O)C=CC12O (stereo partly drawn) | 31.1 | – | 11.2 | 13.6 | 15.1 µM | 11.6 | 14.6 µM | 34.1 | 18.2 µM | 12 | – | – | – | – | – | – | – | – | –
N#CC(C#N)C(c1ccccc1)c1ccccc1 | > 100 | – | > 100 | – | > 100 µM | > 100 | > 100 µM | > 100 | > 100 µM | > 100 | – | – | – | – | – | – | – | – | –
O=C1CC2OCC=C3CN4CCC5(C(=O)O)C(N1)C2C3CC45 (stereo not drawn) | > 100 | > 100 µM | > 100 | > 100 | > 100 µM | – | > 100 µM | > 100 | > 100 µM | > 100 | – | – | – | – | – | – | – | – | –
CN1C/C(=C\c2ccc(C(=O)O)cc2)C(=O)/C(=C/c2ccc(C(=O)O)cc2)C1 | > 100 | > 100 µM | > 100 | > 100 | > 100 µM | > 100 | > 100 µM | > 100 | > 100 µM | > 100 | – | – | – | – | – | – | – | – | –
NC1=Nc2ccccc2Sc2ccccc21 | > 100 | > 100 µM | > 100 | > 100 | > 100 µM | > 100 | > 100 µM | > 100 | > 100 µM | > 100 | – | – | – | – | – | – | – | – | –
Cc1nc(-n2nc(-c3ccccc3)cc2-c2ccccc2)sc1C(=O)/C=C/c1cccc([N+](=O)[O-])c1 | 43.1 | > 100 µM | – | 41.8 | 11.4 µM | 34.3 | 73.4 µM | 50.9 | 28.8 µM | 22.8 | – | – | – | – | – | – | – | – | –
CCN1CCC(O)(/C=C/c2ccccc2)C(C(=O)/C=C/c2ccccc2)C1 (stereo not drawn) | 9.73 | 11.8 µM | – | 10.3 | 3.44 µM | 5.6 | 3.7 µM | 8.38 | 4.01 µM | 3.76 | – | – | – | – | – | – | – | – | –
C=Cc1cc(OC)c2c(c1)c(=O)oc1c2cc(OC)c2c(O)ccc(C3OC(C(C)O)C(O)C3O)c21 (stereo not drawn) | 0.0431 | 0.0336 µM | 0.00406 | 0.0151 | 0.0499 µM | – | 0.172 µM | 0.0969 | 0.0422 µM | 0.0527 | 0.00366 | 0.00403 | 0.0483 nM and 0.209 nM | 0.000928 | 0.0146 µM | 0.00674 | 0.0229 | 0.00309 | 0.013 µM
C#C[C@@H](CCCC)OC(=O)N[C@H](C)c1ccccc1 | > 100 | > 100 µM | > 100 | – | > 100 µM | > 100 | > 100 µM | > 100 | – | – | – | – | – | – | – | – | – | – | –
CN1CCN(c2nc3cc(F)ccc3n3cccc23)CC1 | 52.9 | > 100 µM | > 100 | > 100 | > 100 µM | – | > 100 µM | > 100 | > 100 µM | 79.2 | – | – | – | – | – | – | – | – | –
Cc1c2ccccc2c(C)n2c1nc1cc(Cl)c(Cl)cc12 | > 100 | > 100 µM | 44.7 | > 100 | > 100 µM | – | > 100 µM | > 100 | > 100 µM | > 100 | > 100 | 93.7 | 12900 nM | > 100 | > 100 µM | > 100 | > 100 | > 100 | > 100 µM
COC(=O)Nc1nc2ccc(C(=O)c3cccs3)cc2[nH]1 | – | 15.2 µM and > 100 µM | 5.98 | 0.602 | 41 µM and > 100 µM | > 100 | 32.9 µM and > 100 µM | > 100 | 11.5 µM and > 100 µM | – | 0.109 | 0.584 | 19 nM and 32.7 nM | 0.277 | 0.0259 µM and 0.21 µM | 0.0541 | 0.729 | 0.545 | 0.0574 µM and 0.197 µM
CCOC(=O)CC(C)C1(C=O)CCCCC1=O (stereo not drawn) | > 100 | > 100 µM | 49.8 | – | > 100 µM | 41.6 | > 100 µM | > 100 | > 100 µM | > 100 | – | – | – | – | – | – | – | – | –
CN(C)Cc1cc(C(C)(C)C)cc(CN(C)C)c1O | > 100 | > 100 µM | > 100 | > 100 | > 100 µM | – | > 100 µM | > 100 | 52.2 µM | > 100 | – | – | – | – | – | – | – | – | –
Oc1ccc(O)c(-n2cccn2)c1-n1cccn1 | > 100 | > 100 µM | – | > 100 | > 100 µM | > 100 | > 100 µM | > 100 | > 100 µM | > 100 | – | – | – | – | – | – | – | – | –
C=CCCC(=O)CC(=O)OCc1ccccc1 | > 100 | > 100 µM | – | > 100 | > 100 µM | > 100 | > 100 µM | > 100 | > 100 µM | > 100 | – | – | – | – | – | – | – | – | –
COC1CC(n2cc(F)c(N)nc2=O)OC1CO (stereo not drawn) | > 100 | > 100 µM | – | > 100 | > 100 µM | > 100 | > 100 µM | > 100 | > 100 µM | – | – | – | – | – | – | – | – | – | –
Cc1nc2sc(C(=O)Nc3ccccc3)c(N)c2cc1C(=O)c1ccccc1 | > 50 | > 50 µM | 18.1 | > 50 | > 50 µM | – | > 50 µM | > 50 | 25.8 µM | > 50 | 1.83 | 2.74 | 923 nM | 3.99 | 1.66 µM | 2.04 | 3.01 | 2.9 | 2.19 µM

— PubChem BioAssay (NCI)
